Patent US9757378B2, “Methods to modulate acute myeloid leukemia stem/progenitor cell expansion and/or differentiation” (UNIVERSITE DE MONTREAL, priority 2013, dated 2017)
Structures can show the parent of a compound that is named as a salt.

Tests used:
primary human AML cells [1] = assay: Secondary screen: dose response, five serial dilutions (CD34/CD15 flow cytometry); type: cell-based; design: key to 2ndary screen criteria fulfilled: 0 = no; 1 = yes; details: for 2ndary screen criteria fulfilled: ≧50% increase CD34+CD15− (%) and cell counts and ≧50% gated cells in at least one dose; for % increase CD34+CD15− (%) 2ndary screen / % increase CD34+CD15− (cell counts) 2ndary screen: at optimal concentration, compared to DMSO
Procedure: In the primary screen cells were plated in transparent 384-wellplates (Greiner, 781182) at a density of 5,000 cells in 50 μl final volume per well. Compounds were tested at 2 μM (commercial libraries) or 1 μg/ml (Medicinal Chemistry Facility, IRIC). […] For validation experiments AML cells were grown in 384-well plates with 3-8 replicates per condition.
Flow cytometry was performed on an LSR™ II cytometer equipped with an HTS-device (BD Bioscience, Primary and Secondary screens and in vitro validation experiments) or on a BD Canto™ II cytometer (BD Bioscience, Xenotransplantation and CellTrace Violet™ experiments). Cells were stained for 30 minutes at 4° C. protected from light if not otherwise indicated (CellTrace Violet™ staining). The following flow cytometry-antibodies were used: CD45 Pacific Blue (BioLegend 304029), CD33 PE (BD Bioscience 555450), CD34 APC (BD Bioscience 555824), CD3 FITC (BD Bioscience 555332), CD19 PE-Cy7 (BD Bioscience 557835), CD15 PE (BD Bioscience 555401), and anti-mouse CD45.1 APC-efluor 730 (eBioscience 47-0453-82). CD34 intensities in flow cytometry plots were set at high levels on day 0 to allow tracing of non-predictable decreases of intensities during 7 days in culture.

primary human AML cells [2] = assay: Primary screen: differentiation of primary human AML cells in vitro (CD34/CD15, HTS flow cytometry); details: for percent gated cells (viability): 2 μM (commercial libraries) or 1 μg/ml (IRIC); for % increase CD34+ (%) / % increase CD34+ (cell counts) / % increase CD34+CD15− (cell counts): compared to DMSO; for % increase CD34+CD15− (%): compared to DMSO ((compound − DMSO)/DMSO*100)
Procedure: AML cells were thawed in 37° C. water bath and 1:10 diluted in prewarmed Iscove's modified Dulbecco's medium (IMDM) containing 20% FBS and DNase 100 μg/ml. […] When compounds were added to the culture medium, final DMSO concentrations were 0.1% in all in vitro experiments and 0.01% when cultured cells were transplanted into NSG-mice.
Compounds were tested at 2 μM (commercial libraries) or 1 μg/ml (Medicinal Chemistry Facility, IRIC). […] For validation experiments AML cells were grown in 384-well plates with 3-8 replicates per condition.
Flow cytometry was performed on an LSR™ II cytometer equipped with an HTS-device (BD Bioscience, Primary and Secondary screens and in vitro validation experiments) or on a BD Canto™ II cytometer (BD Bioscience, Xenotransplantation and CellTrace Violet™ experiments). Cells were stained for 30 minutes at 4° C. protected from light if not otherwise indicated (CellTrace Violet™ staining). […] CD34 intensities in flow cytometry plots were set at high levels on day 0 to allow tracing of non-predictable decreases of intensities during 7 days in culture.

[3] = system: primary human AML specimens; assay: Validation: 7-day serum-free culture of diverse AML specimens (CD34+CD15− cells); type: cell-based; details: 7-day culture
Procedure: The following flow cytometry-antibodies were used: […] Statistical analyses of all in vitro experiments were done using Graphpad Prism v 6.01. […] Normalized CD34^+CD15^- percentages (td7/t0) were analyzed by Wilcoxon matched pairs signed rank test. Bars and error bars represent means and standard deviations (SD), or standard errors of the mean (SEM), as specified. Extreme limiting dilution analysis software (Hu, […]: extreme limiting dilution analysis for comparing depleted and enriched populations in stem cell and other assays. Journal of immunological methods 347, 70-78 (2009); http://bioinf.wehi.edu.au/software/elda/) was used to estimate LSC frequencies with 95% confidence intervals. In cases where all mice were positive or negative, one-sided confidence intervals were calculated. Differences in LSC frequencies between culture conditions were analyzed by Chi-square test.

[4] = system: AhR target genes CYP1A1, CYP1B1 and AHRR; assay: AhR target gene expression by q-RT-PCR in AML cells; type: cell-based, human; details: SR1 500 nM; TCDD 0.1, 1, 10 nM; n=13 samples
Description: RNA was isolated from primary AML samples using Trizol® reagent according to the manufacturer's instructions (Invitrogen/Life Technologies) and reverse transcribed into cDNA using MMLV reverse transcriptase and random primers. 2× Fast Master Mix® containing primers described below and probes from the Universal Probe Library® (Roche Diagnostics) were used for q-RT-PCR reactions which were amplified in 2-3 technical replicates on an ABI 7900HT Fast Real-Time® PCR System (Applied Biosystems/Life Technologies). Analysis was done with SDS 2.2.2 software (Applied Biosystems/Life Technologies) using the comparative delta CT method with GAPDH as reference gene. The following primers and probes were used: GAPDH: 5′-[…]-3′ (forward, SEQ ID NO:7), 5′-[…]-3′ (reverse, SEQ ID NO:8), probe 60, CYP1A1: 5′-[…]-3′ (forward, SEQ ID NO:9), 5′-[…]-3′ (reverse, SEQ ID NO:10), probe 59, CYP1B1: 5′-[…]-3′ (forward, SEQ ID NO:11), 5′-[…]-3′ (reverse, SEQ ID NO:12), probe 20, AHRR: 5′-[…]-3′ (forward, SEQ ID NO:13), 5′-[…]-3′ (reverse, SEQ ID NO:14), probe 72, AHR: 5′-[…]-3′ (forward, SEQ ID NO:15), 5′-[…]-3′ (reverse, SEQ ID NO:16), probe 33.

Row | Compound | 2ndary screen criteria fulfilled (primary human AML cells [1]) | percent gated cells (viability) (primary human AML cells [2]) [%] | % increase CD34+ (%) (primary human AML cells [2]) | % increase CD34+ (cell counts) (primary human AML cells [2]) [%] | % increase CD34+CD15− (cell counts) (primary human AML cells [2]) [%] | % increase CD34+CD15− (%) (primary human AML cells [2]) | % increase CD34+CD15− (%) 2ndary screen (primary human AML cells [1]) [%] | % increase CD34+CD15− (cell counts) 2ndary screen (primary human AML cells [1]) [%] | CD34+CD15− cell counts in secondary screenings (ranking) (primary human AML cells [1]; in words) | impact on CD34+CD15− cell numbers ([3]; vs DMSO, P<0.0001 paired t-test) | median CD34+CD15− percentage relative to uncultured cells ([3]; SR1 0.75-1 μM, C05 2 μM, DMSO 19% / 22%) [%] | upregulation of AhR target genes AHRR and CYP1A1 upon 24 h in vitro culture [4]
1 | N[C@@H]1C[C@H]1c1ccccc1 [UM0118428, Tranylcypromine hydrochloride] | 0 | 77.80 | 49.50 | −11.95 | −10.11 | 52.70 | – | – | – | – | – | –
2 | O=c1c2ccccc2oc2ccccc12 [UM0120986, Xanthone] | 0 | 81.40 | 34.82 | 28.81 | 86.26 | 94.85 | – | – | – | – | – | –
3 | CO[C@H]1C[C@@H]2CC[C@@H](C)[C@@](O)(O2)C(=O)C(=O)N2CCCC[C@H]2C(=O)O[C@H]([C@H](C)C[C@@H]2CC[C@@H](O)[C@H](OC)C2)CC(=O)[C@H](C)/C=C(\C)[C@@H](O)[C@@H](OC)C(=O)[C@H](C)C[C@H](C)/C=C/C=C/C=C/1C [UM0119219, Rapamycin] | 0 | 72.30 | 27.40 | −57.86 | −44.01 | 68.93 | – | – | – | – | – | –
4 | O=c1c(O)c(-c2ccc(O)cc2)oc2cc(O)cc(O)c12 [UM0118952, Kaempferol] | 0 | 78.90 | 26.34 | −2.29 | 44.57 | 87.18 | – | – | – | – | – | –
5 | O[C@H]1[C@H]2[C@H](O)CCCN2C[C@H]1O [UM0119223, Swainsonine] | 0 | 81.90 | 30.00 | −43.81 | −22.20 | 79.57 | – | – | – | – | – | –
6 | C[C@@H]1Cc2c(Cl)cc(C(=O)N[C@@H](Cc3ccccc3)C(=O)O)c(O)c2C(=O)O1 [UM0119328, Ochratoxin A] | 0 | 82.10 | 14.82 | 1.28 | 34.37 | 52.56 | – | – | – | – | – | –
7 | COc1c(O)cc2oc(-c3ccc(O)c(O)c3)cc(=O)c2c1O [UM0119305, 6-Methoxyluteolin] | 0 | 83.60 | 31.39 | −2.77 | 40.01 | 88.83 | – | – | – | – | – | –
8 | COc1ccc(-c2oc3cc(O)cc(O)c3c(=O)c2O)cc1 [UM0119298, Kaempferide] | 1 | 82.40 | 42.31 | 25.55 | 75.15 | 98.71 | 105.80 | 114.93 | – | – | – | –
9 | COc1ccc(-c2cc(=O)c3c(O)cc(O)cc3o2)cc1O [UM0119400, Diosmetine] | 0 | – | 31.48 | −19.72 | 20.75 | 97.56 | – | – | – | – | – | –
10 | COc1cc(-c2oc3cc(O)cc(O)c3c(=O)c2O)ccc1O [UM0119319, Isorhamnetine] | 0 | – | 37.41 | 28.67 | 62.94 | 74.28 | – | – | – | – | – | –
11 | COc1ccc(-c2coc3c(O)c(OC)ccc3c2=O)cc1 [UM0121179, Retusin 7-Methylether] | 1 | 82.10 | 58.87 | 59.80 | 125.38 | 124.10 | 218.84 | 199.22 | – | – | – | –
12 | Benzalkonium chloride [UM0120664] | 0 | – | 45.92 | −73.74 | −57.89 | 133.07 | – | – | – | – | – | –
13 | C[C@]12CC[C@H](O)C[C@H]1CC[C@@H]1[C@@H]2CC[C@]2(C)[C@@H](C3=CC(=O)OC3)[C@@H](O)C[C@]12O [UM0119342, Gitoxigenin] | 0 | 77.10 | 48.71 | −44.85 | −40.00 | 62.33 | – | – | – | – | – | –
14 | COc1cccc2oc(-c3ccccc3)cc(=O)c12 [UM0113898, 5-Methoxyflavone] | 1 | – | 36.28 | 20.92 | 61.47 | 82.42 | 105.80 | 119.91 | – | – | – | –
15 | CNC(=O)c1cc2c(cn1)[nH]c1ccccc12 [UM0119840, N-Methyl-beta-carboline-3-carboxamide] | 1 | 86.20 | 31.60 | 37.57 | 85.11 | 76.94 | 172.95 | 252.10 | highest | significant impact | 56 | –
16 | CCCCCCC(=O)CCCCCC/C=C/C[C@@H](O)[C@H](O)[C@@](N)(CO)C(=O)O [UM0119199, Myriocin] | 0 | 79.90 | 1.19 | −36.05 | 9.44 | 72.63 | – | – | – | – | – | –
17 | Clc1cc2c(cc1Cl)Oc1cc(Cl)c(Cl)cc1O2 [TCDD, 2,3,7,8-Tetrachlorodibenzodioxin] | – | – | – | – | – | – | – | – | – | – | – | marginally further induced
18 | O=C(Nc1ccc2c(c1)OCCO2)c1sc2ccccc2c1Cl [UM0045609, 3-chloro-N-(2,3-dihydro-1,4-benzodioxin-6-yl)-1-benzithiophene-2-carboxamide] | 1 | – | 46.63 | 56.89 | 109.14 | 94.85 | 204.83 | 198.60 | – | – | – | –
19 | Cc1cc(=O)oc2cc(O)c(O)cc12 [UM0120835, 4-Methylesculetin] | – | 84.90 | 22.85 | 18.23 | 104.34 | 111.64 | – | – | – | – | – | –
20 | O=c1cc(-c2ccccc2)oc2cc(O)cc(O)c12 [UM0118950, Chrysin] | 1 | – | 47.05 | 48.57 | 108.30 | 105.68 | 194.69 | 172.16 | – | – | – | –
21 | COc1ccc(-c2cc(=O)c3c(OC(C)=O)cc(OC(C)=O)cc3o2)cc1 [UM0120987, Acacetin diacetate] | – | 81.60 | 27.58 | 22.16 | 53.47 | 59.88 | – | – | – | – | – | –
22 | COc1cc(-c2ccc(N=Nc3ccc4c(S(=O)(=O)[O-])cc(S(=O)(=O)[O-])c(N)c4c3O)c(OC)c2)ccc1N=Nc1ccc2c(S(=O)(=O)[O-])cc(S(=O)(=O)[O-])c(N)c2c1O.[Na+].[Na+].[Na+].[Na+] [UM0118703, Chicago sky blue 6B] | – | – | 42.39 | 31.67 | 42.76 | 54.52 | – | – | – | – | – | –
